Results published in patent US9956187B2 (priority 2014, dated 2018).
Counter-ions that a name gives are not always drawn.

Columns and labels:
Assay in all cases: Primary radioligand binding screen
5-HT1A = target: T1, 5-HT1A (Homo sapiens, UniProt P08908)
T1 construct: expressed in transfected cells
Experimental: (§1) Evidence for interaction was based on the inhibition of the reference ligand-binding signal. […] Briefly, 50 μL aliquots of radioactive ligand (5 nM) were added to wells of a 96-well plate, which contained 25 μL of the reference or test ligands. We employed transfected cell lines expressing mainly human (unless otherwise specified) recombinant receptors, monoamine transporters, or ion channels for crude membrane preparation. Detailed information about our membrane preparation is well known in the art and can be obtained from publicly available protocol online. Crude membrane fractions containing the receptors were resuspended in standard binding buffer and 50 μL aliquots added to each well. The reactions were incubated at room temperature for 1.5 hours to allow for radioligand binding equilibration. Bound radioactivity was harvested by rapid filtration through a 0.3% polyethyleneimine-treated, 96-well filter mats using a 96-well Filtermate harvester. The dried filters were treated with melted scintillant and a Microbeta scintillation counter was utilized to measure the radioactivity retained on the filter.

5-HT1B = target: T2, 5-HT1B (Homo sapiens, UniProt P28222)
T2 construct: expressed in transfected cells
T2 sequence (P28222 whole entry): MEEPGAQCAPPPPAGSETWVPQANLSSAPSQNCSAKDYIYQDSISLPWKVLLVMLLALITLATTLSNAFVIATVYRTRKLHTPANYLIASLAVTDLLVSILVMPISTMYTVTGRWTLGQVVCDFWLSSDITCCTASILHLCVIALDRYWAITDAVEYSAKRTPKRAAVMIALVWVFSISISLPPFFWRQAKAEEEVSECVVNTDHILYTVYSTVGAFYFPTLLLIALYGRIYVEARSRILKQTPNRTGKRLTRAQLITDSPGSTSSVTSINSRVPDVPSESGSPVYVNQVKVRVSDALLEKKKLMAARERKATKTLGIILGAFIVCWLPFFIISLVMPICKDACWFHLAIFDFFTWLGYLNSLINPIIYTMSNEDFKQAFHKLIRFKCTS
Experimental: as §1

5-HT1D = target: T3, 5-HT1D (Homo sapiens, UniProt P28221)
T3 construct: expressed in transfected cells
Experimental: as §1

5-HT1E = target: T4, 5-HT1E (Homo sapiens, UniProt P28566)
T4 construct: expressed in transfected cells
T4 sequence (P28566 whole entry): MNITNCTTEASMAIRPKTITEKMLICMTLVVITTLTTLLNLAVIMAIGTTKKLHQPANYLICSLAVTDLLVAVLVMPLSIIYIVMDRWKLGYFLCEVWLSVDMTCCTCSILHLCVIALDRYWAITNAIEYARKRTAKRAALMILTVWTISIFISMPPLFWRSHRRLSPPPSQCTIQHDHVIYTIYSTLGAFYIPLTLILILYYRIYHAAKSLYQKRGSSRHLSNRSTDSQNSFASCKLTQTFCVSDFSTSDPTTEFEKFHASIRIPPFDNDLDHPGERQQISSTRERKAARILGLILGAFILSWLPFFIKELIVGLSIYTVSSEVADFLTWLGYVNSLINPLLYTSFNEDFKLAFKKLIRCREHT
Experimental: as §1

5-HT2A = target: T5, 5-HT2A (Homo sapiens, UniProt P28223)
T5 construct: expressed in transfected cells
Experimental: as §1

5-HT2B = target: T6, 5-HT2B (Homo sapiens, UniProt P41595)
T6 construct: expressed in transfected cells
Experimental: as §1

5-HT2C = target: T7, 5-HT2C (Homo sapiens, UniProt P28335)
T7 construct: expressed in transfected cells
T7 sequence (P28335 33-458): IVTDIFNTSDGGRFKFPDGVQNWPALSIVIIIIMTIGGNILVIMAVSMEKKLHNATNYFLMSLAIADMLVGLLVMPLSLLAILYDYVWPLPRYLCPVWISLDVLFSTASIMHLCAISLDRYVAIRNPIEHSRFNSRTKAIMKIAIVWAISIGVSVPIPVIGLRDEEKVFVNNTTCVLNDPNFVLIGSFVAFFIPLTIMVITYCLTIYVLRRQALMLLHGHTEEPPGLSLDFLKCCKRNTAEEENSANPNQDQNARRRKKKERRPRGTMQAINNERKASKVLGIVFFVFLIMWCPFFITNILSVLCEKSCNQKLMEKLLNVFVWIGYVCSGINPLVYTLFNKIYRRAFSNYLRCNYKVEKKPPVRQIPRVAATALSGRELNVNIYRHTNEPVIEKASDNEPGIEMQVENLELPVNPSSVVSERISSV
Experimental: as §1

5-HT3 = target: T8, 5-HT3 (Homo sapiens, UniProt P46098)
T8 construct: expressed in transfected cells
Experimental: as §1

5-HT6 = target: T9, 5-HT6 (Homo sapiens, UniProt P50406)
T9 construct: expressed in transfected cells
T9 sequence (P50406 whole entry): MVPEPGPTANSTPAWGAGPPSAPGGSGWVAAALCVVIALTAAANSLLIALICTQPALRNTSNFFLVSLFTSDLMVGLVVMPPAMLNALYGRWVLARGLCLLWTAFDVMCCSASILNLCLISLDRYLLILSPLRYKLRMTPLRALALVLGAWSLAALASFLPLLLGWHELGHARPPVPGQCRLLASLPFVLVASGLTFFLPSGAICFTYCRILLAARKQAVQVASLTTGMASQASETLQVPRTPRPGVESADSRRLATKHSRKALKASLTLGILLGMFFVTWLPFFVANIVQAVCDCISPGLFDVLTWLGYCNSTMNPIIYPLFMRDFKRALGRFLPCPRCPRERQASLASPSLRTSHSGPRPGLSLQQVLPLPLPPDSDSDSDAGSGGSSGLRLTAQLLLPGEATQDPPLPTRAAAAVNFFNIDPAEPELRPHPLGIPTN
Experimental: as §1

5-HT7 = target: T10, 5-HT7 (Homo sapiens, UniProt P34969)
T10 construct: expressed in transfected cells
T10 sequence (P34969 whole entry): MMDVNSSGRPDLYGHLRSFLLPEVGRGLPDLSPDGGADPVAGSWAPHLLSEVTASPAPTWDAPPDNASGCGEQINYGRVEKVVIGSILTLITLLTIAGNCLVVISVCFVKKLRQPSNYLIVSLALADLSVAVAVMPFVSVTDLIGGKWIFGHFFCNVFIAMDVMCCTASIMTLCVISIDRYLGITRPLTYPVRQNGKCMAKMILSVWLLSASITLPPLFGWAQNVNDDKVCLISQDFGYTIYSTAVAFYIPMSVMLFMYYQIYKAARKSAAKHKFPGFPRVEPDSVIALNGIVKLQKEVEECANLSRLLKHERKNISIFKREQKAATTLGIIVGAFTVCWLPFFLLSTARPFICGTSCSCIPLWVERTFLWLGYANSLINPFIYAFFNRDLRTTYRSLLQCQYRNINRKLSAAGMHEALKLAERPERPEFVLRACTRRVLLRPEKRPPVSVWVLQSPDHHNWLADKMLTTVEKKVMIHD
Experimental: as §1

5-hT5A = target: T11, 5-hT5A (Homo sapiens, UniProt P47898)
T11 construct: expressed in transfected cells
Experimental: as §1

Alpha1D = target: T12, Alpha1D (Homo sapiens, UniProt P25100)
T12 construct: expressed in transfected cells
Experimental: as §1

Alpha2A = target: T13, Alpha2A (Homo sapiens, UniProt P08913)
T13 construct: expressed in transfected cells
Experimental: as §1

Alpha2B = target: T14, Alpha2B (Homo sapiens, UniProt P18089)
T14 construct: expressed in transfected cells
Experimental: as §1

Alpha2C = target: T15, Alpha2C (Homo sapiens, UniProt P18825)
T15 construct: expressed in transfected cells
Experimental: as §1

Beta1 = target: T16, Beta1 (Homo sapiens, UniProt P08588)
T16 construct: expressed in transfected cells
Experimental: as §1

Beta2 = target: T17, Beta2 (Homo sapiens, UniProt P07550)
T17 construct: expressed in transfected cells
T17 sequence (P07550 whole entry): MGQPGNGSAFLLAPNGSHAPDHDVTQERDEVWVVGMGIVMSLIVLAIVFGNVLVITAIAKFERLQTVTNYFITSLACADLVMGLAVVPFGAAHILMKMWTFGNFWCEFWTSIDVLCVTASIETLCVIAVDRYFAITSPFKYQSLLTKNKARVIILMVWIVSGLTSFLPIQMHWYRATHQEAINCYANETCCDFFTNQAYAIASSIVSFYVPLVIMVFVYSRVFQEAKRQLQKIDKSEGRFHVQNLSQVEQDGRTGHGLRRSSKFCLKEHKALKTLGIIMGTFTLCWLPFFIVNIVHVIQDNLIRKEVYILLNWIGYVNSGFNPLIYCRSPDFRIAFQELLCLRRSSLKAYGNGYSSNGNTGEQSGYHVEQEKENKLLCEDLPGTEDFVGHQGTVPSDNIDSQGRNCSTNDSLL
Experimental: as §1

Beta3 = target: T18, Beta3 (Homo sapiens, UniProt P13945)
T18 construct: expressed in transfected cells
T18 sequence (P13945 whole entry): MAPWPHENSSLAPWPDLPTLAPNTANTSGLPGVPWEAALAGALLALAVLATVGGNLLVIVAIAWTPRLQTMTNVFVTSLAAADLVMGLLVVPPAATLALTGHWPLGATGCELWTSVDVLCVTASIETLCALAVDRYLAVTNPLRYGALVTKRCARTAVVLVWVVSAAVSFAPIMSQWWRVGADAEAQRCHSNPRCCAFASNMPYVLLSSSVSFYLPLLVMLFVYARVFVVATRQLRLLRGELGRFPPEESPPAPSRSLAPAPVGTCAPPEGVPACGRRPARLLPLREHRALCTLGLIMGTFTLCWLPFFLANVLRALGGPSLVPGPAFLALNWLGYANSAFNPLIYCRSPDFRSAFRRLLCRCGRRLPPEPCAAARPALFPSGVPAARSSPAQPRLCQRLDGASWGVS
Experimental: as §1

D1 = target: T19, D1 (Homo sapiens, UniProt P21728)
T19 construct: expressed in transfected cells
Experimental: as §1

D2 = target: T20, D2 (Homo sapiens, UniProt P14416)
T20 construct: expressed in transfected cells
Experimental: as §1

D4 = target: T21, D4 (Homo sapiens, UniProt P21917)
T21 construct: expressed in transfected cells
Experimental: as §1

DAT = target: T22, DAT (Homo sapiens, UniProt Q01959)
T22 construct: expressed in transfected cells
Experimental: as §1

DOR = target: T23, DOR (Homo sapiens, UniProt P41143)
T23 construct: expressed in transfected cells
T23 sequence (P41143 whole entry): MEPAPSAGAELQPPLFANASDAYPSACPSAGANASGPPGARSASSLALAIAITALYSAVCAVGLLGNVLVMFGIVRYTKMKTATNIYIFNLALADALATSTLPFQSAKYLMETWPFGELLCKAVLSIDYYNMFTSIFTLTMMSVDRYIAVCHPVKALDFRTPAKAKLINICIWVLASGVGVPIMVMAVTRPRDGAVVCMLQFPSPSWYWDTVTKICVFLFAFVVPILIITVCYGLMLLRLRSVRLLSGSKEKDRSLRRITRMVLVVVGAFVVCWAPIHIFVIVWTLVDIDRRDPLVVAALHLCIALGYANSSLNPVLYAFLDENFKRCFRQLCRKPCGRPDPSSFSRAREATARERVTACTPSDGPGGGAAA
Experimental: as §1

H2 = target: T24, H2 (Homo sapiens, UniProt P25021)
T24 construct: expressed in transfected cells
Experimental: as §1

H3 = target: T25, H3 (Homo sapiens, UniProt Q9Y5N1)
T25 construct: expressed in transfected cells
Experimental: as §1

M1 = target: T26, M1 (Homo sapiens, UniProt P11229)
T26 construct: expressed in transfected cells
Experimental: as §1

M2 = target: T27, M2 (Homo sapiens, UniProt P08172)
T27 construct: expressed in transfected cells
Experimental: as §1

M3 = target: T28, M3 (Homo sapiens, UniProt P20309)
T28 construct: expressed in transfected cells
Experimental: as §1

M4 = target: T29, M4 (Homo sapiens, UniProt P08173)
T29 construct: expressed in transfected cells
Experimental: as §1

M5 = target: T30, M5 (Homo sapiens, UniProt P08912)
T30 construct: expressed in transfected cells
Experimental: as §1

NET = target: T31, NET (Homo sapiens, UniProt P23975)
T31 construct: expressed in transfected cells
T31 sequence (P23975 whole entry): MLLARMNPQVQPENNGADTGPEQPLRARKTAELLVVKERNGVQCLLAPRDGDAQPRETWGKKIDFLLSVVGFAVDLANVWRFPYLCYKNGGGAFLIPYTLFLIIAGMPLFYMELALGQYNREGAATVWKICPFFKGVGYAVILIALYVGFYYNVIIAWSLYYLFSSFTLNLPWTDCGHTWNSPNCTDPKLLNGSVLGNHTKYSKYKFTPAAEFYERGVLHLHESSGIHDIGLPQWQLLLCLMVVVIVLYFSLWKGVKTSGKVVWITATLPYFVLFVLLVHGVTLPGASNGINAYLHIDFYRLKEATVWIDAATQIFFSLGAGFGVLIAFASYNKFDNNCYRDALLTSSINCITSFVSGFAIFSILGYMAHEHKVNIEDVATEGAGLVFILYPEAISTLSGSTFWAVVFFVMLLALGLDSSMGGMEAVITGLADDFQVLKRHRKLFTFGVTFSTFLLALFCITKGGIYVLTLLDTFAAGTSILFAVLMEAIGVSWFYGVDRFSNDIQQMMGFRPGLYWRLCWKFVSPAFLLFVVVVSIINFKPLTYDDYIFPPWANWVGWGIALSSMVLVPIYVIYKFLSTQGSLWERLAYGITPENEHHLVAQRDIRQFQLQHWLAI
Experimental: as §1

SERT = target: T32, SERT (Homo sapiens, UniProt P31645)
T32 construct: expressed in transfected cells
T32 sequence (P31645 whole entry): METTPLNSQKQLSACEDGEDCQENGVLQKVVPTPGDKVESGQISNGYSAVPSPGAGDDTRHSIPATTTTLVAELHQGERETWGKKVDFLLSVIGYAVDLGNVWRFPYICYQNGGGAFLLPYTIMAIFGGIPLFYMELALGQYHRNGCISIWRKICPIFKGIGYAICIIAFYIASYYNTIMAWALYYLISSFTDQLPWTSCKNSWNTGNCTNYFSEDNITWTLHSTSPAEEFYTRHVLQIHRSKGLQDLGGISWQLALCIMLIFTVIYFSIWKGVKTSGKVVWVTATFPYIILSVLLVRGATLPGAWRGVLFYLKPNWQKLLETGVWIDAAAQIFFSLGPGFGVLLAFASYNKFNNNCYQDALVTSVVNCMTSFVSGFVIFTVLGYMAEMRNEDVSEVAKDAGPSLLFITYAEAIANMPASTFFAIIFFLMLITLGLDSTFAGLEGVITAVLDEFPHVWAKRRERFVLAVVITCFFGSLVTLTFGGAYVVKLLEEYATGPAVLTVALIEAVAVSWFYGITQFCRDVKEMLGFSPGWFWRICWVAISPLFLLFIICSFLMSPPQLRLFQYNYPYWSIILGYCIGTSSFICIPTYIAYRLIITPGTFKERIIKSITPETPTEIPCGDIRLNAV
Experimental: as §1

Sigma 2 = Sigma 2 (Rattus norvegicus, UniProt Q5U3Y7)
Experimental: as §1

T1 sequence (P08908 whole entry): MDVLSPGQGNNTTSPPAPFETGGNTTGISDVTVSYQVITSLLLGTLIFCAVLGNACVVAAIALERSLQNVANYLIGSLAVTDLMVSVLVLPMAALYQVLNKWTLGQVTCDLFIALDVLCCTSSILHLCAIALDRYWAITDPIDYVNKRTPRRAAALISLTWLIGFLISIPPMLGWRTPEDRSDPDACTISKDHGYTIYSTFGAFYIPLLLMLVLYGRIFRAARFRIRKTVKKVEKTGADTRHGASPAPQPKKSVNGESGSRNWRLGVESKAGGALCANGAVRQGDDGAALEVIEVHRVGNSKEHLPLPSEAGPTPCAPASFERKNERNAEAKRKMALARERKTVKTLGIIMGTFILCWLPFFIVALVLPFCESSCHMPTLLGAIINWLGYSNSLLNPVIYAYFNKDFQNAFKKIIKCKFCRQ

Question: Which inhibition at 10 µM (5-HT1A) does the source give for C[C@@]12CCCCC[C@@H](Cc3ccc(O)cc31)[C@@H]2N [Dezocine, (−)-13β-amino-5,6,7,8,9,10,11,12-octahydro-5α-methyl-5,11-methanobenxocyclodecen-31-ol, hydrobromide] here?
Answer: 43.5%

Question: What about the inhibition at 10 µM (5-HT1B) of the same molecule?
Answer: -14.1%

Question: What about the inhibition at 10 µM (5-HT1D) of the same molecule?
Answer: -0.4%

Question: And the inhibition at 10 µM (5-HT1E)?
Answer: -2.4%

Question: And the inhibition at 10 µM (5-HT2A)?
Answer: -10%

Question: And the inhibition at 10 µM (5-HT2B)?
Answer: -11.9%

Question: And the inhibition at 10 µM (5-HT2C)?
Answer: 19.8%

Question: And the inhibition at 10 µM (5-HT3)?
Answer: 11.8%

Question: And the inhibition at 10 µM (5-HT6)?
Answer: 10.9%

Question: What about the inhibition at 10 µM (5-HT7) of the same molecule?
Answer: 20.9%

Question: What about the inhibition at 10 µM (5-hT5A) of the same molecule?
Answer: 3.4%

Question: What about the inhibition at 10 µM (Alpha1D) of the same molecule?
Answer: 8.9%

Question: What about the inhibition at 10 µM (Alpha2A) of the same molecule?
Answer: 40.9%

Question: What about the inhibition at 10 µM (Alpha2B) of the same molecule?
Answer: 21.2%

Question: And the inhibition at 10 µM (Alpha2C)?
Answer: -7.9%

Question: And the inhibition at 10 µM (Beta1)?
Answer: 10%

Question: What about the inhibition at 10 µM (Beta2) of the same molecule?
Answer: -4.5%

Question: What about the inhibition at 10 µM (Beta3) of the same molecule?
Answer: -15%

Question: What about the inhibition at 10 µM (D1) of the same molecule?
Answer: 11.5%

Question: What about the inhibition at 10 µM (D2) of the same molecule?
Answer: -3.8%

Question: And the inhibition at 10 µM (D4)?
Answer: -5.1%

Question: And the inhibition at 10 µM (DAT)?
Answer: 15.8%

Question: What about the inhibition at 10 µM (DOR) of the same molecule?
Answer: 58.5%

Question: What about the inhibition at 10 µM (H2) of the same molecule?
Answer: 33.6%

Question: What about the inhibition at 10 µM (H3) of the same molecule?
Answer: -1.6%

Question: What about the inhibition at 10 µM (M1) of the same molecule?
Answer: -6.8%

Question: What about the inhibition at 10 µM (M2) of the same molecule?
Answer: 31.5%

Question: And the inhibition at 10 µM (M3)?
Answer: -3.4%

Question: What about the inhibition at 10 µM (M4) of the same molecule?
Answer: 2.5%

Question: What about the inhibition at 10 µM (M5) of the same molecule?
Answer: 19.4%

Question: And the inhibition at 10 µM (NET)?
Answer: 86.4%

Question: What about the inhibition at 10 µM (SERT) of the same molecule?
Answer: 97.7%

Question: And the inhibition at 10 µM (Sigma 2)?
Answer: 6.3%
